# Tested on: 156681-154-R-J1 tumor spheroid viability
# Test: Anticancer human tumor 156681-154-R-J1 patient-derived melanoma cell line growth inhibition
# Conditions: spheroids with HUVEC and MSC; for IC50: curve of first compound; for viability, T/C: stronger effect = lower value
# Outline: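 Complex spheroids of malignant cells with endothelial cells and mesenchymal stem cells; agents alone or combined, from near clinical Cmax (or 10 microM if unknown) down in half-log steps, 0.25% DMSO final.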
# 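Further: spheroids exposed to compounds for 7 days before readout.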
# 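Wherever viability, T/C is given: percent of vehicle control viability where 100% = DMSO-treated spheroids.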
structure (smiles),measurement,setting,value
O=C(c1cc(Cc2n[nH]c(=O)c3ccccc23)ccc1F)N1CCN(C(=O)C2CC2)CC1 + COc1cc2c(cc1O)CCNC21CSC2c3c(OC(C)=O)c(C)c4c(c3C(COC1=O)N1C(O)C3Cc5cc(C)c(OC)c(O)c5C(C21)N3C)OCO4,IC50,second compound 30 pM,> 30 µM
same,IC50,second compound 94.9 pM,> 30 µM
same,IC50,second compound 0.0003 µM,5.84 µM
same,IC50,second compound 0.000949 µM,< 0.0949 µM
same,IC50,second compound 0.003 µM,< 0.0949 µM
same,"viability, T/C","second compound 30 pM, first compound 0.0949 µM",83.5%
same,"viability, T/C","second compound 30 pM, first compound 0.3 µM",77%
same,"viability, T/C","second compound 30 pM, first compound 0.949 µM",73.4%
same,"viability, T/C","second compound 30 pM, first compound 3 µM",72.2%
same,"viability, T/C","second compound 30 pM, first compound 9.49 µM",65.3%
same,"viability, T/C","second compound 30 pM, first compound 30 µM",60.1%
same,"viability, T/C","second compound 94.9 pM, first compound 0.0949 µM",82.1%
same,"viability, T/C","second compound 94.9 pM, first compound 0.3 µM",85.9%
same,"viability, T/C","second compound 94.9 pM, first compound 0.949 µM",82.7%
same,"viability, T/C","second compound 94.9 pM, first compound 3 µM",66.3%
same,"viability, T/C","second compound 94.9 pM, first compound 9.49 µM",69%
same,"viability, T/C","second compound 94.9 pM, first compound 30 µM",53.5%
same,"viability, T/C","second compound 0.0003 µM, first compound 0.0949 µM",69.8%
same,"viability, T/C","second compound 0.0003 µM, first compound 0.3 µM",68.6%
same,"viability, T/C","second compound 0.0003 µM, first compound 0.949 µM",64.1%
same,"viability, T/C","second compound 0.0003 µM, first compound 3 µM",66.8%
same,"viability, T/C","second compound 0.0003 µM, first compound 9.49 µM",37.8%
same,"viability, T/C","second compound 0.0003 µM, first compound 30 µM",21.2%
same,"viability, T/C","second compound 0.000949 µM, first compound 0.0949 µM",4.61%
same,"viability, T/C","second compound 0.000949 µM, first compound 0.3 µM",4.05%
same,"viability, T/C","second compound 0.000949 µM, first compound 0.949 µM",3.32%
same,"viability, T/C","second compound 0.000949 µM, first compound 3 µM",4.15%
same,"viability, T/C","second compound 0.000949 µM, first compound 9.49 µM",0.45%
same,"viability, T/C","second compound 0.000949 µM, first compound 30 µM",0.13%
same,"viability, T/C","second compound 0.003 µM, first compound 0.0949 µM",0.12%
same,"viability, T/C","second compound 0.003 µM, first compound 0.3 µM",0.12%
same,"viability, T/C","second compound 0.003 µM, first compound 0.949 µM",0.1%
same,"viability, T/C","second compound 0.003 µM, first compound 3 µM",0.11%
same,"viability, T/C","second compound 0.003 µM, first compound 9.49 µM",0.11%
same,"viability, T/C","second compound 0.003 µM, first compound 30 µM",0.17%
COc1ccc([C@@H](O)c2cc(-c3ncnc4cc(N5CCOCC5)ccc34)c(F)cc2Cl)nn1 + Cn1nnc2c(C(N)=O)ncn2c1=O,IC50,second compound 1 µM,> 10 µM
same,IC50,second compound 3.16 µM,> 10 µM
same,IC50,second compound 10 µM,7.33 µM
same,IC50,second compound 31.6 µM,> 10 µM
same,IC50,second compound 100 µM,> 10 µM
same,"viability, T/C","second compound 1 µM, first compound 0.0316 µM",104%
same,"viability, T/C","second compound 1 µM, first compound 0.1 µM",98.4%
same,"viability, T/C","second compound 1 µM, first compound 0.316 µM",86%
same,"viability, T/C","second compound 1 µM, first compound 1 µM",70.5%
same,"viability, T/C","second compound 1 µM, first compound 3.16 µM",72.2%
same,"viability, T/C","second compound 1 µM, first compound 10 µM",53.3%
same,"viability, T/C","second compound 3.16 µM, first compound 0.0316 µM",101%
same,"viability, T/C","second compound 3.16 µM, first compound 0.1 µM",111%
same,"viability, T/C","second compound 3.16 µM, first compound 0.316 µM",77.7%
same,"viability, T/C","second compound 3.16 µM, first compound 1 µM",79.1%
same,"viability, T/C","second compound 3.16 µM, first compound 3.16 µM",62%
same,"viability, T/C","second compound 3.16 µM, first compound 10 µM",54.8%
same,"viability, T/C","second compound 10 µM, first compound 0.0316 µM",71.5%
same,"viability, T/C","second compound 10 µM, first compound 0.1 µM",85.4%
same,"viability, T/C","second compound 10 µM, first compound 0.316 µM",73.8%
same,"viability, T/C","second compound 10 µM, first compound 1 µM",66.2%
same,"viability, T/C","second compound 10 µM, first compound 3.16 µM",70.7%
same,"viability, T/C","second compound 10 µM, first compound 10 µM",42.9%
same,"viability, T/C","second compound 31.6 µM, first compound 0.0316 µM",60%
same,"viability, T/C","second compound 31.6 µM, first compound 0.1 µM",67.3%
same,"viability, T/C","second compound 31.6 µM, first compound 0.316 µM",71.8%
same,"viability, T/C","second compound 31.6 µM, first compound 1 µM",47.2%
same,"viability, T/C","second compound 31.6 µM, first compound 3.16 µM",77.4%
same,"viability, T/C","second compound 31.6 µM, first compound 10 µM",45.2%
same,"viability, T/C","second compound 100 µM, first compound 0.0316 µM",55%
same,"viability, T/C","second compound 100 µM, first compound 0.1 µM",55.7%
same,"viability, T/C","second compound 100 µM, first compound 0.316 µM",48.1%
same,"viability, T/C","second compound 100 µM, first compound 1 µM",64.4%
same,"viability, T/C","second compound 100 µM, first compound 3.16 µM",54.7%
same,"viability, T/C","second compound 100 µM, first compound 10 µM",48.4%

# Source: PubChem BioAssay AID1845195 (Molecular Pharmacology Branch, DTP, NCI, 2023)
